Source: publication PMC11862924, “Phenylpyrazoles as Inhibitors of the m^6A RNA-Binding Protein YTHDF2” (JACS Au, 2025)
“Also recorded” adds a separate entry of the source.

Experiments:
[1] = biological target: T1, YTHDF2 (residues 383–553) (Homo sapiens, UniProt Q9Y5A9); assay: Fluorescence polarization (FP) assay, YTHDF2–m6A RNA interaction; type: binding; conditions: for inhibition at 100 µM / inhibition at 100 μM in the FP assay: 100 μM compound, YTHDF2 (residues 383–553, 20 nM), FAM-labeled m6A RNA probe 5 nM, average ± SD; for inhibitory IC50 in FP (in words): YTHDF2–m6A RNA interaction, Figure S2
T1 construct: A YTHDF2 YTH domain construct (residues 383–553) was subcloned to a pOPIN plasmid; made in house; host or cells: Escherichia coli BL21(DE3)
T1 sequence (Q9Y5A9 383-553): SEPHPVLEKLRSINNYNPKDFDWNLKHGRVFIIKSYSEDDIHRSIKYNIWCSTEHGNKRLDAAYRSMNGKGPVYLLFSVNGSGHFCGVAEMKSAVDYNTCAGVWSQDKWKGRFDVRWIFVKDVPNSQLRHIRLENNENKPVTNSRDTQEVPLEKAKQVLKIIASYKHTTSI
Procedure, shortened: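 Compounds preincubated with YTHDF2 (20 nM final) before adding FAM-labelled m6A RNA probe (5 nM final) in 20 mM HEPES/KOH pH 7.5, 50 mM NaCl, 0.005% Tween 20, 1 mM GSH (DTT). Incubation 30 min at 4 °C; polarization read at ex 485/em 535 nm.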

YTHDF2 [2] = biological target: T2, YTHDF2 (Homo sapiens, UniProt Q9Y5A9); assay: Electrophoretic mobility shift assay (EMSA); type: binding; conditions: for inhibition of the YTHDF2–m6A RNA interaction in EMSA at 100 μM (in words): 100 μM compound, 250 nM YTHDF2, FAM-labeled m6A RNA; for concentration-dependent inhibition of YTHDF2–m6A RNA complex formation in EMSA (in words): 3.1–100 μM compound, 250 nM YTHDF2, 20 nM FAM-labelled m6A RNA
T2 construct: A YTHDF2 YTH domain construct (residues 383–553) was subcloned to a pOPIN plasmid; made in house; host or cells: Escherichia coli BL21(DE3)
T2 sequence (Q9Y5A9 383-553): T1 sequence (Q9Y5A9 383-553)
Procedure: Compounds with different concentrations (3.1–100 μM) were incubated with 250 nM YTH-domain and 20 nM FAM-17mer-RNA in a buffer containing 20 mM HEPES, pH 8.2, 50 mM NaCl, 0.05% Triton X-100, and 5% v/v glycerol for 20 min at 4 °C. […] Gel imaging was performed in ChemiDoc MP (Bio-Rad), and Cy2/Alexa488 fluorescence was detected with a 1-min exposure time. Quantification of the gel image was performed by ImageJ.

YTHDF2 [3] = biological target: T2, YTHDF2; assay: nanoDSF thermal shift assay; type: binding; conditions: for ΔTm at 5 µM: 5 μM compound; for ΔTm at 10 µM: 10 μM compound
Procedure: NanoDSF was measured on a NanoTemper instrument (Prometheus NT.48). YTHDF2 protein was used at a concentration of 5 μM and incubated with 50, 25, 10, and 5 μM compound in buffer (100 mM KPi, pH 7.0, 250 mM NaCl, 10% Glycerol) for 50 min, in which 0.1% DMSO was used as the reference. The heat rate was set to 1 °C per minute, measured in a range between 20 and 90 °C.

[4] = biological target: T3, YTHDF1 (residues 375-552) (Homo sapiens, UniProt Q9BYJ9); assay: FP assay with YTH domain of YTHDF1; type: binding; conditions: 0.5 µM YTHDF1, m6A RNA probe 4 nM
T3 construct: Plasmids of the YTH domain of YTHDF1 (residues 375–552); made in house; host or cells: Escherichia coli BL21(DE3); plasmid from the Zhou lab (Boston College)
T3 sequence (Q9BYJ9 375-552): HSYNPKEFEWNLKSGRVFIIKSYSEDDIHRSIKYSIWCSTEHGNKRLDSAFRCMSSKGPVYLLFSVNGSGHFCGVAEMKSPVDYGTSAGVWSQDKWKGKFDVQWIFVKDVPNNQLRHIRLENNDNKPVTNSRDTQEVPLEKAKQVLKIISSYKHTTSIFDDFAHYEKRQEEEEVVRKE
Procedure: The FP assay was performed in 384-well black plates (Corning no. 4514) with a total reaction volume of 15 μL. The final concentrations of protein (YTHDF2) and RNA were […], respectively, in a buffer containing 20 mM HEPES/KOH pH 7.5, 50 mM NaCl, 0.005% Tween 20, and 1 mM GSH (DTT). Compounds were incubated with protein, added FAM-m^6A RNA probe ([…](m6)ACUGUG) (purchased from IDT), and incubated at 4 °C for 30 min. The fluorescence polarization was measured using a plate reader (TECAN Spark) under an excitation wavelength of 485 nm and an emission wavelength of 535 nm with a bandwidth of 20 nm. […] The data were determined using GraphPad Prism 9.
Figure S8. The FP assay of YTHDF1 binding to the m6A RNA substrate. (A)The purification of YTHDF1 (residues 375-552), molecular weight: 21.9 kDa. (B) The anisotropy values using different concentrations of YTHDF1 with the m6A RNA probe (4 nM), which was used to decide the appropriate […] concentration for the FP (0.5 µM of YTHDF1, Z-factor: 0.65). (C) The […]
(§1) (1 picture or pasted object on this page, not shown here)

YTHDF1 = biological target: T4, YTHDF1 (Homo sapiens, UniProt Q9BYJ9); assay: EMSA with YTHDF1; type: binding; conditions: m6A RNA 20 nM
T4 construct: Plasmids of the YTH domain of YTHDF1 (residues 375–552); made in house; host or cells: Escherichia coli BL21(DE3); plasmid from the Zhou lab (Boston College)
T4 sequence (Q9BYJ9 375-552): T3 sequence (Q9BYJ9 375-552)
Procedure: (§2) Compounds with different concentrations (3.1–100 μM) were incubated with 250 nM YTH-domain and 20 nM FAM-17mer-RNA in a buffer containing 20 mM HEPES, pH 8.2, 50 mM NaCl, 0.05% Triton X-100, and 5% v/v glycerol for 20 min at 4 °C. The samples were subjected to 12% native polyacrylamide gel and run at 120 V for 90 min at 4 °C using 0.5× TBE buffer. Gel imaging was performed in ChemiDoc MP (Bio-Rad), and Cy2/Alexa488 fluorescence was detected with a 1-min exposure time. Quantification of the gel image was performed by ImageJ.
Figure S12. The EMSA of YTHDF1 binding to the m6A RNA substrate. (A) The YTHDF1–RNA
complex formation in EMSA using m6A RNA (20 nM) and different concentrations of YTHDF1 . (B)
consistent results with that of FP.
as §1

YTHDF3 = biological target: T5, YTHDF3 (Homo sapiens, UniProt Q7Z739); assay: EMSA with YTHDF3; type: binding; conditions: m6A RNA 20 nM
T5 construct: YTHDF3 (residues 391–585); made in house; host or cells: Escherichia coli BL21(DE3); plasmid from the Zhou lab (Boston College)
T5 sequence (Q7Z739 391-585): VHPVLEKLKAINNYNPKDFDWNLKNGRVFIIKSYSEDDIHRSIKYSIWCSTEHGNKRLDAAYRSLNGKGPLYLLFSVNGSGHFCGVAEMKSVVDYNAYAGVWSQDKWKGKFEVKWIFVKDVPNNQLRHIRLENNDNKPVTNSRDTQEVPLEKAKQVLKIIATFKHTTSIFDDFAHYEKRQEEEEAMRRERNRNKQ
Procedure: as §2
Figure S13. The EMSA of YTHDF3 binding to the m 6A RNA substrate. (A) The YTHDF 3–RNA
complex formation in EMSA using m 6A RNA (20 nM) and different concentrations of YTHDF1 . (B)
as §1

HCT116 = assay: CCK-8 proliferation assay, HCT116; type: cell-based; conditions: Homo sapiens, HCT-116; CCK-8 kit assay, triplicates, 72 h; read-out: Anti-proliferation activity against cancer cells (IC50), HCT116
Procedure: The JAR, K562, HCT116, and MOLM13 cells were seeded in 96-well plates (3000 cells/well). After being cultured overnight, compounds were added together with the DMSO treatment (0.1%) as a control. After 72 h, CCK-8 solution (Vazyme, A311) was added, and the cells were incubated at 37 °C for 4 h. The absorbance was measured at 450 nm using a plate reader (TECAN Spark).

| SMILES | inhibition at 100 µM [1] | inhibition at 100 μM in the FP assay [1] | inhibitory IC50 in FP (in words) [1] | inhibition of the YTHDF2–m6A RNA interaction in EMSA at 100 μM (in words) (YTHDF2 [2]) | concentration-dependent inhibition of YTHDF2–m6A RNA complex formation in EMSA (in words) (YTHDF2 [2]) | ΔTm at 5 µM (YTHDF2 [3]) | ΔTm at 10 µM (YTHDF2 [3]) | inhibitory activity against YTHDF1 in FP (in words) [4] | inhibition of m6A RNA binding to YTHDF1 in EMSA (in words) (YTHDF1) | inhibition of m6A RNA binding to YTHDF3 in EMSA (in words) (YTHDF3) | IC50 (HCT116) | ΔTm at 25 µM (YTHDF2 [3]; 25 μM compound) | IC50 ([4]; read-out: IC50 against YTHDF1 in FP) |
| --- | --- | --- | --- | --- | --- | --- | --- | --- | --- | --- | --- | --- | --- |
| Cc1cc(O)c(C(=O)c2cnn(-c3ccc(C(=O)O)cc3)c2)cc1Cl [CK-79] | > 70% | 70.3 ± 5.1% | low double-digit micromolar | potent inhibition; also recorded: potently inhibited | potent inhibition | 0.96 ± 0.08 °C | 1.39 ± 0.37 °C | inactive | did not show detectable inhibition | did not show detectable inhibitory activity; also recorded: did not show detectable inhibition | 44 ± 6.8 µM |  |  |
| O=C(O)c1ccc(-n2cc(C(=O)c3c(O)ccc4ccccc34)cn2)cc1 [CK-75] |  |  |  |  |  |  |  | inactive | did not show detectable inhibition | did not show detectable inhibitory activity; also recorded: did not show detectable inhibition |  |  |  |
| O=C(O)c1ccc(-n2cc(C(=O)c3cc(Cl)cc(Cl)c3O)cn2)cc1 [CK-61] | > 70% | 81.4 ± 10.7% | low double-digit micromolar | potent inhibition; also recorded: potently inhibited | potent inhibition | 0.94 ± 0.58 °C | 1.56 ± 0.41 °C |  | minimal inhibition | did not show detectable inhibitory activity; also recorded: no activity | > 50 µM | 3.21 °C | 67.5 µM |
